| Structure (SMILES) | melting point [°C] |
| --- | --- |
| CNc1ccc(C#Cc2cncc(-c3nc(NC)nc4cc(OC)c(OC)cc34)c2)cn1 [Example 79, 6,7-Dimethoxy-2-methylamino-4-[5-[2-(6-methylamino-3-pyridyl)ethynyl]-3-pyridyl]quinazoline] | 160 to 162 |
| CNc1nc(-c2cccc(-c3ccc(C)c(C)c3)c2)c2cc(OC)c(OC)cc2n1 [Example 48, 6,7-Dimethoxy-4-(3′,4′-dimethyl-3-biphenylyl)-2-methylaminoquinazoline] | 149 to 151 |
| CNc1nc(-c2cccc(NC(=O)c3ccccc3)c2)c2cc(O)c(OC)cc2n1 [Example 82, 4-(3-Benzoylaminophenyl)-6-hydroxy-7-methoxy-2-methylaminoquinazoline] | 145 to 147 |
| CNc1nc(-c2cccc(-c3cncc([S+](C)[O-])c3)c2)c2cc(OC)c(OC)cc2n1 (centres unmarked) [Example 59, 6,7-Dimethoxy-2-methylamino-4-[3-(5-methylsulfinyl-3-pyridyl)phenyl]quinazoline] | 208 to 210 |
| CNc1nc(-c2cccc(-c3cncc(OC)c3)c2)c2cc(OC)c(OC)cc2n1 [Example 57, 6,7-Dimethoxy-4-[3-(5-methoxy-3-pyridyl)phenyl]-2-methylaminoquinazoline] | 225 to 227 |
| CNc1nc(-c2cccc(-c3ccccc3)c2)c2cc(OC)c(OC)cc2n1 [Example 46, 4-(3-Biphenylyl)-6,7-dimethoxy-2-methylaminoquinazoline] | 183 to 185 |
| CNc1nc(-c2cccc(NC(=O)c3cc(OC)c(OC)c(OC)c3)c2)c2cc(OC)c(OC)cc2n1 [Example 19, 6,7-Dimethoxy-4-methylamino-4-[3-(3,4,5-trimethoxybenzoylamino)phenyl]quinazoline] | 122 to 124 |
| CNc1nc(-c2cncc(-c3ccccc3)c2)c2cc(OC)c(OC)cc2n1 [Example 75, 6,7-Dimethoxy-2-methylamino-4-(5-phenyl-3-pyridyl)quinazoline] | 177 to 179 |
| CNc1nc(-c2cccc(NCc3ccccc3)c2)c2cc(OC)c(OC)cc2n1 [Example 38] | 146 to 148 |
| CNc1nc(-c2cncc(-c3ccc(SC)cc3)c2)c2cc(OC)c(OC)cc2n1 [Example 77, 6,7-Dimethoxy-2-methylamino-4-[5-(4-methylthiophenyl)-3-pyridyl]quinazoline] | 170 to 172 |
| CNc1nc(-c2cccc(-c3ccc4nccn4c3)c2)c2cc(OC)c(OC)cc2n1 [Example 50, 6,7-Dimethoxy-4-[3-(imidazo[1.2-a]pyridine-6-yl)phenyl]-2-methylaminoquinazoline] | 237 to 239 |
| CNc1nc(-c2cccc(-c3cccnc3)c2)c2cc(OC)c(OC)cc2n1 [Example 47, 6,7-Dimethoxy-2-methylamino-4-[3-(3-pyridyl)phenyl]quinazoline] | 186 to 188 |
| CNc1nc(-c2cccc(NC(=O)c3ccccc3)c2)c2cc(OCc3ccccc3)c(OC)cc2n1 [Example 81, 4-(3-Benzoylaminophenyl)-6-benzyloxy-7-methoxy-2-methylaminoquinazoline] | 204 to 206 |
| CNc1nc(-c2cccc(NC(=O)c3ccccc3OCc3ccccc3)c2)c2cc(OC)c(OC)cc2n1 [Example 24, 4-[3-(2-Benzyloxybenzoylamino)phenyl]-6,7-dimethoxy-2-methylaminoquinazoline] | 192 to 194 |
| CNc1nc(-c2ccc(-c3ccccc3)s2)c2cc(OC)c(OC)cc2n1 [Example 74, 6,7-Dimethoxy-2-methylamino-4-(5-phenyl-2-thienyl)quinazoline] | 201 to 203 |
| CNc1nc(-c2cccc(CCc3ccccc3)c2)c2cc(OC)c(OC)cc2n1 [Example 66, 6,7-Dimethoxy-2-methylamino-4-[3-(2-phenylethyl)phenyl]quinazoline] | 95 to 97 |

Results, then the compound that gave them:

| melting point [°C] | Structure (SMILES) |
| --- | --- |
| 180 to 182 | CNc1nc(-c2cccc(NC(=O)CCc3ccccc3)c2)c2cc(OC)c(OC)cc2n1 [Example 7, 6,7-Dimethoxy-2-methylamino-4-[3-(3-phenylpropanoylamino)phenyl]quinazoline] |
| 194 to 196 | CNc1nc(-c2cccc(NC(=O)c3ccccc3OC)c2)c2cc(OC)c(OC)cc2n1 [Example 11, 6,7-Dimethoxy-4-[3-(2-methoxybenzoylamino)phenyl]-2-methylaminoquinazoline] |
| 205 to 207 | CNc1nc(-c2cccc(NC(=O)c3ccc4c(c3)OCO4)c2)c2cc(OC)c(OC)cc2n1 [Example 5, 6,7-Dimethoxy-2-methylamino-4-[3-(3,4-methylenedioxybenzoylamino)phenyl]quinazoline] |
| 110 to 112 | CNc1nc(-c2cccc(NC(=O)c3cccc(OCc4ccccc4)c3)c2)c2cc(OC)c(OC)cc2n1 [Example 22, 4-[3-(3-Benzyloxybenzoylamino)phenyl]-6,7-dimethoxy-2-methylaminoquinazoline] |
| 219 to 221 | CNc1nc(-c2cccc(NC(=O)c3ccc(OC)cc3)c2)c2cc(OC)c(OC)cc2n1 [Example 13, 6,7-Dimethoxy-4-[3-(4-methoxybenzoylamino)phenyl]-2-methylaminoquinazoline] |
| 265 to 267 | CNc1nc(-c2cccc(NC(=O)c3cccc(O)c3)c2)c2cc(OC)c(OC)cc2n1 [Example 23, 6,7-Dimethoxy-4-[-(3-hydroxybenzoylamino)phenyl]-2-methylaminoquinazoline] |
| 277 to 279 | CNc1nc(-c2cccc(NC(=O)c3ccc(S(C)(=O)=O)cc3)c2)c2cc(OC)c(OC)cc2n1 [Example 28, 6,7-Dimethoxy-2-methylamino-4-[3-(4-methylsulfonylbenzoylamino)phenyl]quinazoline] |
| 134 to 136 | CNc1nc(-c2cccc(NC(=O)c3ccc(Cl)c(Cl)c3)c2)c2cc(OC)c(OC)cc2n1 [Example 15, 4-[3-(3,4-Dichlorobenzoylamino)phenyl]-6,7-dimethoxy-2-methylaminoquinazoline] |
| 242 to 244 | CNc1nc(-c2cccc(C(=O)Nc3ccccc3)c2)c2cc(OC)c(OC)cc2n1 [Example 70, 6,7-Dimethoxy-2-methylamino-4-(3-phenylcarbamoylphenyl)quinazoline] |
| 238 to 240 | CNc1nc(-c2cccc(C(=O)Nc3cccnc3)c2)c2cc(OC)c(OC)cc2n1 [Example 71, 6,7-Dimethoxy-2-methylamino-4-[3-(3-pyridyl)carbamoylphenyl]quinazoline] |
| 193 to 195 | CNc1nc(-c2cccc(NC(=O)c3ccc(Cl)cc3)c2)c2cc(OC)c(OC)cc2n1 [Example 10, 4-[3-(4-Chlorobenzoylamino)phenyl]-6,7-dimethoxy-2-methylaminoquinazoline] |
| 197 to 199 | CNc1nc(-c2cccc(NC(=O)c3ccccc3Cl)c2)c2cc(OC)c(OC)cc2n1 [Example 8, 4-[3-(2-Chlorobenzoylamino)phenyl]-6,7-dimethoxy-2-methylaminoquinazoline] |
| 246 to 248 | CNc1nc(-c2cccc(NC(=O)c3ccc([S+](C)[O-])cc3)c2)c2cc(OC)c(OC)cc2n1 (centres unmarked) [Example 27, 6,7-Dimethoxy-2-methylamino-4-[3-(4-methylsulfinylbenzoylamino)phenyl]quinazoline] |

From patent US6352989B1, “Nitrogenous heterocyclic derivatives and medicine thereof” (Eisai Co., Ltd., priority 1998, dated 2002)
